{
  "source": "patent US20220211620A1",
  "about": "“Pain Relieving Spray” (Animal Ethics Pty Ltd, priority 2019, published 2022)",
  "origin": "cited, not measured here",
  "conditions": "up to about; depending on the method of administration",
  "data": [
    {"molecule": "CCCCN1CCCCC1C(=O)Nc1c(C)cccc1C", "note": "(stereo not shown) [bupivacaine]", "values": [
      {"measurement": "duration of anaesthesia typically provided", "value": "6 to 12", "unit": "h"}
    ]}
  ]
}
